In patent US9090593B2, “Bicyclic compounds as Pim inhibitors” (AMGEN INC., priority 2010, dated 2015) one finds IC50 data, which are given here for 42 molecules.

The target in assay [1] is T1, full length recombinant Pim-1 protein (Homo sapiens, UniProt P11309).
T1 construct: by full length recombinant Pim-1, Pim-2, or Pim-3 protein; hexahistidine tag followed by a thrombin cleavage site (N); made in house; host or cells: Sf9 (baculovirus) or E. coli (pET28)
Description: Pim-1 enzyme assay (HTRF, phosphorylation of biotinylated-BAD (S112) peptide). The settings on record: read-out: Pim_1_IC50. The class given is biochemical. From the text:
(§1) These cDNAs were used as templates in PCR reactions to produce full-length DNA clones of the PIMs. […] PCR products were digested with […] and EcoRI for Pim-1 and BamHI and EcoRI for Pim-2 and ligated into a modified baculovirus transfer vector (pFastBac1) cleaved with BamHI and EcoRI. For bacterial expression, the same cleaved PCR products encoding Pim-1 or Pim-2 were ligated into a modified E. coli expression vector pET28(a) cleaved with BamHI and EcoRI Amino-terminal hexahistidine tags followed by a thrombin cleavage site were previously added to the vectors using standard methods of molecular biology. Recombinant baculoviruses expressing Pim-1 or Pim-2 were made using standard methods (Fastbac manual, Invitrogen, Carlsbad, Calif.). Infection of Sf9 cells was done at an m.o.i. of greater than 5 for 24-48 h. Cells were harvested by centrifugation and frozen at −80 C. For E. coli expression, cells carrying pET28-His6-Th-Pim-1 or pET28-His6-Th-Pim-2 were picked from a single colony and grown o/n in LB media. The o/n culture was used to inoculate a 2 liter flask with 500 mL media. This was grown o/n and used to inoculate 15-20 liters of Terrific Broth in a New Brunswick Scientific fermentor. The E. coli were grown at 37° C. to and OD600>1.6. The temperature was dropped to 18° C. and o/n expression was induced with 0.5 mM IPTG. Cells were harvested by centrifugation and frozen at −80° C.
(§2) This step was repeated 3× and the resin was transferred to a 2.5 cm glass column. Ten column volumes of wash buffer (0.05 M HEPES, pH 8.0, 0.1 M NaCl, 0.01 M 2-mercaptoethanol, 10% (w/v) glycerol) were applied to the resin followed by 10 column volumes of elution buffer (0.05 M HEPES, pH 8.0, 0.25 M NaCl, 0.01 M 2-mercaptoethanol, 10% (w/v) glycerol, 0.1 M imidazole). Fractions were analyzed by SDS-PAGE and those containing the protein of interest were pooled and concentrated. The concentrated protein was applied to an Amersham Superdex 75 (XK 26/60) column equilibrated in 0.025 M Tris-HCl, pH 7.5, 0.1 M NaCl, 0.01 M 2-mercaptoethanol, 10% (w/v) glycerol. […] Fractions containing the monomeric protein of interest were pooled, concentrated to ˜2 mg/mL, and stored at −80° C.
(§3) The phosphorylation of biotinylated-BAD (S112) peptide by full length recombinant Pim-1, Pim-2, or Pim-3 protein was detected with streptavidin:Allophycocyanin (APC) conjugate and a europium (Eu) labeled antibody directed against phosphorylated-BAD (S112). […] The fluorescence is directly proportional to the amount of phosphorylated BAD peptide present in the reaction.
(§4) A reference compound was included on each assay plate in order to validate that plate; on one plate of every assay run, two additional reference compounds were included.
(§5) The final buffer conditions were as follows: 60 mM Hepes, pH 7.0, 0.05% BSA, 2 mM DTT. […] The reaction was stopped by the addition of 3 mM EDTA, and fluorescence was measured by an HTRF® Rubystar microplate reader. For each plate, percent of control (POC) values were calculated for each well. Values for the IC50 IP were estimated using a standard 4-parameter logistic model.
Background: In TR-FRET formats the signal depends on donor and acceptor labels being close together.

In assay [2] the target is T2, full length recombinant Pim-2 protein (Homo sapiens, UniProt Q9P1W9).
T2 construct: by full length recombinant Pim-1, Pim-2, or Pim-3 protein; hexahistidine tag followed by a thrombin cleavage site (N); made in house; host or cells: Sf9 (baculovirus) or E. coli (pET28)
T2 sequence (Q9P1W9 whole entry): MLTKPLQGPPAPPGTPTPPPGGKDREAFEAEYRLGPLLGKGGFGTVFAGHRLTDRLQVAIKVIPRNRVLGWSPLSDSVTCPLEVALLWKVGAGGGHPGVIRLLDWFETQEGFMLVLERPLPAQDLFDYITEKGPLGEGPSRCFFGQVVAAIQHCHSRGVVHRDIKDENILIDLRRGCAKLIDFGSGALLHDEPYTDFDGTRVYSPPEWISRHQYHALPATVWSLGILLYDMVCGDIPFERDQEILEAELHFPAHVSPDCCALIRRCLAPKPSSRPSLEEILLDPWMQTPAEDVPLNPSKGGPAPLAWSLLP
The assay can be described thus: Pim-2 enzyme assay (HTRF, phosphorylation of biotinylated-BAD (S112) peptide). The class given is biochemical. The note with it: read-out: Pim2_IC50.
From the text: as §1, §2, §3, §4, §5

The structures appear in SMILES notation. Where only a bound is given, the exact number is not on record here.

T1 sequence (P11309 whole entry): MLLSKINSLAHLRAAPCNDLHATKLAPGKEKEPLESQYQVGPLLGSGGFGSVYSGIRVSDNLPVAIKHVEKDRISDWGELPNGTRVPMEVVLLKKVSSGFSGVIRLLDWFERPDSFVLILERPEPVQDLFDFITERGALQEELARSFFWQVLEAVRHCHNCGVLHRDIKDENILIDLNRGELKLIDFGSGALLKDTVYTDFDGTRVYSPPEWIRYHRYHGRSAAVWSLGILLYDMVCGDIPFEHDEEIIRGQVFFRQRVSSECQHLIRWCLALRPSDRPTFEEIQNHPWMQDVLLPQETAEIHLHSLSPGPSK

Consider `Cc1cccc(-c2ccc3[nH]cc(-c4cncc(O[C@@H]5CCCNC5)n4)c3c2)c1C` [Example 330], for which the IC50 in assay [1] was found to be 54 nM; in assay [2], 268 nM.

Regarding `CC(C)Cc1ccc(-c2ccc3[nH]cc(-c4cncc(O[C@@H]5CCCNC5)n4)c3c2)cc1` [Example 332], the IC50 in assay [1] is 43 nM; in assay [2], 156 nM.

Consider `CS(=O)(=O)Nc1cc(-c2ccc3[nH]cc(-c4cncc(O[C@@H]5CCCNC5)n4)c3c2)cnc1Cl` [Example 334], for which the IC50 is 72 nM in assay [1] and 149 nM in assay [2].

Turning to `Nc1ccc(Oc2ncccc2-c2ccc3[nH]cc(-c4cncc(O[C@@H]5CCCNC5)n4)c3c2)cc1` [Example 337], the IC50 turned out to be 56 nM in assay [1] and 592 nM in assay [2].

For `c1cc2[nH]cc(-c3cncc(O[C@@H]4CCCNC4)n3)c2cc1-c1cncc(C2CCCN2)c1` (stereo partly drawn) [Example 340], the IC50 amounted to 42 nM in assay [1] and 260 nM in assay [2].

In the case of `COc1cc(C#N)c(-c2ccc3[nH]cc(-c4cncc(O[C@@H]5CCCNC5)n4)c3c2)cc1OC(C)C` [Example 342], the results for the IC50 in assay [1] and in assay [2] were 159 nM and greater than 1000 nM, respectively.

Regarding `COc1cc(C#N)cc(-c2ccc3[nH]cc(-c4cncc(O[C@@H]5CCCNC5)n4)c3c2)c1OC` [Example 346], the figures for the IC50 in assay [1] and in assay [2] were 105 nM and 363 nM, respectively.

Regarding `CCCOc1c(OC)cc(C#N)cc1-c1ccc2[nH]cc(-c3cncc(O[C@@H]4CCCNC4)n3)c2c1` [Example 348], the results for the IC50 in assay [1] and in assay [2] were 364 nM and greater than 1000 nM, respectively.

Take `CC(=O)Nc1cc(-c2ccc3[nH]cc(-c4cncc(O[C@@H]5CCCNC5)n4)c3c2)cc(C(F)(F)F)c1` [Example 349]: the IC50 in assay [1] was determined as 30 nM; in assay [2], 290 nM.

In the case of `CC(C)Oc1ccc(-c2ccc3[nH]cc(-c4cncc(O[C@@H]5CCCNC5)n4)c3c2)cc1C#N` [Example 352], the values for the IC50 in assay [1] and in assay [2] were 30 nM and 133 nM, respectively.

On to `Cc1ccc(C(F)(F)F)cc1-c1ccc2[nH]cc(-c3cncc(O[C@@H]4CCCNC4)n3)c2c1` [Example 353], for which the IC50 in assay [1] was determined as 159 nM; in assay [2] it was 889 nM.

On to `COc1cc(C#N)cc(-c2ccc3[nH]cc(-c4cncc(O[C@@H]5CCCNC5)n4)c3c2)c1OC(C)C` [Example 354], for which the IC50 in assay [1] was 834 nM; in assay [2] it was greater than 1000 nM.

In the case of `FC(F)(F)COc1cncc(-c2n[nH]c3ccc(-c4cncc(C5CC5)n4)cc23)n1` [Example 363], the IC50 in assay [1] amounted to 57 nM; in assay [2] it was 253 nM.

Turning to `c1cc(C2CC2)nc(-c2ccc3[nH]cc(-c4cncc(C5CC5)n4)c3c2)n1` [Example 370], the IC50 in assay [1] was 126 nM; in assay [2], greater than 1000 nM.

Turning to `c1cc(C2CC2)nc(-c2c[nH]c3ccc(-c4cncc(C5CC5)n4)cc23)n1` [Example 371], the IC50 worked out at 26 nM in assay [1] and 113 nM in assay [2].

Take `Cn1nccc1-c1ccc2[nH]nc(-c3cncc(O[C@@H]4CCCNC4)n3)c2c1` [Example 375]: the IC50 in assay [1] came to 75 nM; in assay [2], 243 nM.

`COc1cncc(-c2n[nH]c3ccc(-c4nccc(N5CCOC[C@@H]5C)n4)cc23)n1` [Example 376]: the IC50 came out at 21 nM in assay [1] and 275 nM in assay [2].

Turning to `COc1cncc(-c2n[nH]c3ccc(-c4nccc(C(C)C)n4)cc23)n1` [Example 377], the values for the IC50 in assay [1] and in assay [2] were 55 nM and 231 nM, respectively.

Take `COc1cncc(-c2n[nH]c3ccc(-c4cc(C(F)(F)F)ccn4)cc23)n1` [Example 378]: the results for the IC50 in assay [1] and in assay [2] were 627 nM and greater than 1000 nM, respectively.

Consider `CC(C)Oc1cncc(-c2n[nH]c3ccc(-c4nccc(N5CCOC[C@@H]5C)n4)cc23)n1` [Example 380], for which the IC50 in assay [1] was 67 nM; in assay [2] it was greater than 1000 nM.

For `COc1cncc(-c2n[nH]c3ccc(-c4nccc(NC5CC5)n4)cc23)n1` [Example 382], the IC50 in assay [1] was 50 nM; in assay [2], 335 nM.

With `FCCOc1cncc(-c2n[nH]c3ccc(-c4nccc(C5CC5)n4)cc23)n1` [Example 385], the IC50 in assay [1] was found to be 56 nM; in assay [2], 457 nM.

Take `CC(C)Oc1cncc(-c2n[nH]c3ccc(-c4cnn(C(C)C)c4)cc23)n1` [Example 387]: the IC50 came to 93 nM in assay [1] and 230 nM in assay [2].

Regarding `COc1cncc(-c2n[nH]c3ccc(-c4cnn(C(C)C)c4)cc23)n1` [Example 388], the IC50 was 116 nM in assay [1] and 124 nM in assay [2].

For `O=C(NC1CC1)c1ccc(F)c(-c2ccc3[nH]nc(-c4cncc(OCCF)n4)c3c2)c1` [Example 389], the IC50 in assay [1] is 173 nM; in assay [2], 200 nM.

On to `NC(=O)c1ccc(F)c(-c2ccc3[nH]nc(-c4cncc(OCCF)n4)c3c2)c1` [Example 390], for which the IC50 in assay [1] was 119 nM; in assay [2], 241 nM.

Take `c1cc2[nH]nc(-c3cncc(O[C@@H]4CNCCC45CC5)n3)c2cc1N1CCOCC1` [Example 399]: the IC50 in assay [1] and in assay [2] was greater than 1000 nM each time.

In the case of `C[C@@H]1CN(c2ccc3[nH]nc(-c4cncc(O[C@H]5CNCCC56CC6)n4)c3c2)CCO1` [Example 401], the IC50 in assay [1] was 30 nM; in assay [2], 58 nM.

On to `C[C@H]1COCCN1c1ccc2[nH]nc(-c3cncc(O[C@H]4CNCCC45CC5)n3)c2c1` [Example 402], for which the IC50 in assay [1] is 30 nM; in assay [2], 39 nM.

As for `C[C@@H]1COCCN1c1ccc2[nH]nc(-c3cncc(O[C@H]4CNCCC45CC5)n3)c2c1` [Example 403], the IC50 in assay [1] was determined as 70 nM; in assay [2] it was 58 nM.

As for `O=C1COCCN1c1ccc2[nH]nc(-c3cncc(O[C@H]4CNCCC45CC5)n3)c2c1` [Example 405], the IC50 was 159 nM in assay [1] and 447 nM in assay [2].

Consider `Brc1ccc2[nH]nc(-c3cncc(O[C@H]4CNCCC45CC5)n3)c2c1` [Example 422], for which the IC50 in assay [1] worked out at 22 nM; in assay [2] it was 82 nM.

Turning to `Oc1cncc(-c2n[nH]c3ccc(-c4ccccc4F)cc23)n1` [Example 435], the values for the IC50 in assay [1] and in assay [2] were 322 nM and 629 nM, respectively.

With `CN1CCC(Oc2cncc(-c3n[nH]c4ccc(-c5c(F)cccc5F)cc34)n2)CC1` [Example 445], the IC50 in assay [1] was 20 nM; in assay [2], 43 nM.

Regarding `O[C@@H]1CN(c2cncc(-c3n[nH]c4ccc(-c5c(F)cccc5F)cc34)n2)C[C@@H]1O` [Example 448], the values for the IC50 in assay [1] and in assay [2] were 105 nM and 137 nM, respectively.

In the case of `OC1CN(c2cncc(-c3n[nH]c4ccc(-c5c(F)cccc5F)cc34)n2)CC1O` (stereo not drawn) [Example 449], the IC50 in assay [1] turned out to be 159 nM; in assay [2], 639 nM.

Take `OC1CN(c2cncc(-c3n[nH]c4ccc(-c5c(F)cccc5F)cc34)n2)CC1O` (stereo not drawn) [Example 450]: the results for the IC50 in assay [1] and in assay [2] were 159 nM and 453 nM, respectively.

As to `Nc1ncc(-c2ccc3[nH]nc(-c4cncc(O[C@H]5CNCCC56CC6)n4)c3c2)cn1` [Example 464], the IC50 was 4 nM in assay [1] and 17 nM in assay [2].

Regarding `CNC(=O)c1ccc2[nH]nc(-c3cncc(NC4CCNCC4)n3)c2c1` [Example 471], the IC50 in assay [1] came out at 171 nM; in assay [2] it was 329 nM.

In the case of `COc1cc(N2CCC(N)CC2)nc(-c2n[nH]c3ccc(-c4c(F)cccc4F)cc23)n1` [Example 472], the IC50 in assay [1] worked out at 112 nM; in assay [2], 617 nM.

As for `CNC(=O)c1ccc2[nH]nc(-c3cncc(N[C@@H]4CCCNC4)n3)c2c1` [Example 475], the IC50 came out at 30 nM in assay [1] and 192 nM in assay [2].

`CNC(=O)c1ccc2[nH]nc(-c3cncc(O[C@@H]4CCCNC4)n3)c2c1` [Example 478]: the IC50 in assay [1] was 180 nM; in assay [2] it was greater than 1000 nM.
